What was measured:
[1] = target: Glutamate receptor ionotropic, kainate (Rattus norvegicus) (UniProt P22756+Q01812+P42260+P42264+Q63273); assay: Inhibition of Glutamate, Kainate at 10 µM in the Eurofins-Panlabs radioligand binding assay (Eurofins_assay_232700); details: Compound concentration 10.0 uM
[2] = target: Platelet-activating factor receptor (Homo sapiens) (UniProt P25105); assay: Inhibition of Platelet Activating Factor (PAF) at 10 µM in the Eurofins-Panlabs radioligand binding assay (Eurofins_assay_265010); details: Compound concentration 10.0 uM
Bacteria = assay: Inhibition of Beta-Lactamase at 10 µM in the Eurofins-Panlabs enzyme assay (Eurofins_assay_126000); format: protein-complex assay; parameters: substrate with concentration; details: Compound concentration 10.0 uM
Homo sapiens = organism: Homo sapiens; assay: Glutamate, Metabotropic, mGlu5 Eurofins-Panlabs radioligand binding assay; details: Compound concentration 10.0 uM
[3] = target: Serine/threonine-protein kinase 10 (Homo sapiens, UniProt O94804); assay: LOK DiscoveRx kinase panel
[4] = target: Mitogen-activated protein kinase kinase kinase kinase 4 (Homo sapiens) (UniProt O95819); assay: MAP4K4 DiscoveRx kinase panel; details: Compound concentration 1.0 uM
[5] = target: Dual specificity protein kinase TTK (Homo sapiens) (UniProt P33981); assay: TTK DiscoveRx kinase panel; details: Compound concentration 1.0 uM
[6] = target: Casein kinase I isoform delta (Homo sapiens) (UniProt P48730); assay: CSNK1D DiscoveRx kinase panel; details: Compound concentration 1.0 uM
Sequence of Casein kinase I isoform delta (Homo sapiens) (P48730 whole entry, looked up, canonical isoform): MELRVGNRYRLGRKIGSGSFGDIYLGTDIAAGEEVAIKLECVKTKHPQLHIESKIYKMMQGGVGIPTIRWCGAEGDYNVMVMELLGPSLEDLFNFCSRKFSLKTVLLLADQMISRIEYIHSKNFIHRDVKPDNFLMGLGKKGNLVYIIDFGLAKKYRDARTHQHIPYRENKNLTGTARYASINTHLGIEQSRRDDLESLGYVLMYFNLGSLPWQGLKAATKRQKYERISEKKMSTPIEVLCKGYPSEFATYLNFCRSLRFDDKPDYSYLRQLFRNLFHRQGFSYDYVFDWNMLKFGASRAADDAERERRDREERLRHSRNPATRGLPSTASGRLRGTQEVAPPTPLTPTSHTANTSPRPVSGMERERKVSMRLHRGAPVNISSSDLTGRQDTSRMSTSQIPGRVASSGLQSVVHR

[7] = target: Dual specificity mitogen-activated protein kinase kinase 5 (Homo sapiens) (UniProt Q13163); assay: MEK5 DiscoveRx kinase panel; details: Compound concentration 1.0 uM
[8] = target: Serine/threonine-protein kinase 32C (Homo sapiens) (UniProt Q86UX6); assay: YANK3 DiscoveRx kinase panel; details: Compound concentration 1.0 uM
Sequence of Serine/threonine-protein kinase 32C (Homo sapiens) (Q86UX6 whole entry): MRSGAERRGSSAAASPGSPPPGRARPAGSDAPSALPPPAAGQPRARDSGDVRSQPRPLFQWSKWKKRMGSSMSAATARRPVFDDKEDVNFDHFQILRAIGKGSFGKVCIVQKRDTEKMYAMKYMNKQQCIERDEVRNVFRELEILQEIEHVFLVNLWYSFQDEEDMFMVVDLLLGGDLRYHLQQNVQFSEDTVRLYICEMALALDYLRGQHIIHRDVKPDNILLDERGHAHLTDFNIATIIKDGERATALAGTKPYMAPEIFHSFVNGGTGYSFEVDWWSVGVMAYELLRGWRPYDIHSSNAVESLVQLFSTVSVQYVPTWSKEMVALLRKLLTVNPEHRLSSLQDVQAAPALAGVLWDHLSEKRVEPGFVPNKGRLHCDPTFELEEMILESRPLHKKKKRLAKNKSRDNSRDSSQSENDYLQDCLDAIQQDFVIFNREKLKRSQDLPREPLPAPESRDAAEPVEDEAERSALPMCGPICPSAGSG

[9] = target: Mitogen-activated protein kinase kinase kinase kinase 1 (Homo sapiens) (UniProt Q92918); assay: HPK1 DiscoveRx kinase panel; details: Compound concentration 1.0 uM
[10] = target: Serine/threonine-protein kinase 32B (Homo sapiens) (UniProt Q9NY57); assay: YANK2 DiscoveRx kinase panel; details: Compound concentration 1.0 uM
[11] = target: Dual specificity protein kinase CLK4 (Homo sapiens) (UniProt Q9HAZ1); assay: CLK4 DiscoveRx kinase panel; details: Compound concentration 1.0 uM
[12] = target: Death-associated protein kinase 3 (Homo sapiens) (UniProt O43293); assay: DAPK3 DiscoveRx kinase panel; details: Compound concentration 1.0 uM
[13] = target: Serine/threonine-protein kinase PAK 5 (Homo sapiens) (UniProt Q9P286); assay: PAK7 DiscoveRx kinase panel; details: Compound concentration 1.0 uM
[14] = target: Protein kinase C iota type (Homo sapiens) (UniProt P41743); assay: PRKCI DiscoveRx kinase panel; details: Compound concentration 1.0 uM
[15] = target: SRSF protein kinase 3 (Homo sapiens) (UniProt Q9UPE1); assay: SRPK3 DiscoveRx kinase panel; details: Compound concentration 1.0 uM
[16] = target: Tyrosine-protein kinase Fyn (Homo sapiens) (UniProt P06241); assay: FYN DiscoveRx kinase panel; details: Compound concentration 1.0 uM
[17] = target: Serine/threonine-protein kinase ULK1 (Homo sapiens) (UniProt O75385); assay: ULK1 DiscoveRx kinase panel; details: Compound concentration 1.0 uM
Sequence of Serine/threonine-protein kinase ULK1 (Homo sapiens) (O75385 whole entry): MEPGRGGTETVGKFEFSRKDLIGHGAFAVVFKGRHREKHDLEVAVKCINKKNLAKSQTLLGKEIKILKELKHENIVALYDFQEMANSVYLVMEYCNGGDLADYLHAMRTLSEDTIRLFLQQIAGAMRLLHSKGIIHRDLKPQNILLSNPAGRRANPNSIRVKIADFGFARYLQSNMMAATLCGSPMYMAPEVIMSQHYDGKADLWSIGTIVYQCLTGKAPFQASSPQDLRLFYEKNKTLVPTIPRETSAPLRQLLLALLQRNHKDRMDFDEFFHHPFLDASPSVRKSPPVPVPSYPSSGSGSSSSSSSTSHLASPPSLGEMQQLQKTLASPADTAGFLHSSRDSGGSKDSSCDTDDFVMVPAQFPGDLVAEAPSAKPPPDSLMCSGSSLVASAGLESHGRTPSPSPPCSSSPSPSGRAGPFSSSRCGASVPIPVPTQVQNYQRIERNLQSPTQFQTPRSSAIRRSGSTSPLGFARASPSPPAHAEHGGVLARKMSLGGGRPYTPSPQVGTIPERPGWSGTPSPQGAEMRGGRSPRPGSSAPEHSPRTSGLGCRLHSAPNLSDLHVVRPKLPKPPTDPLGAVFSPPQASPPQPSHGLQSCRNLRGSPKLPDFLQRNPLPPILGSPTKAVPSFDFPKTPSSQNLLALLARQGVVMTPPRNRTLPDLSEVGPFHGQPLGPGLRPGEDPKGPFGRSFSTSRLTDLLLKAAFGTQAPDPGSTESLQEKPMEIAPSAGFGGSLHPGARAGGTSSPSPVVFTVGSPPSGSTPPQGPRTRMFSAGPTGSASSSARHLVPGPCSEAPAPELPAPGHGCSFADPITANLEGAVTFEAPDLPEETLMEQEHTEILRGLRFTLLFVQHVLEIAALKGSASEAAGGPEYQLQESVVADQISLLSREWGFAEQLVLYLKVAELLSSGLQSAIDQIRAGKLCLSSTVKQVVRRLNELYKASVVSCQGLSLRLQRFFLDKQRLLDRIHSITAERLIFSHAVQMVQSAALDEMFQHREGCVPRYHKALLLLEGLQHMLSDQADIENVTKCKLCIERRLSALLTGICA

[18] = tested on: eIF-2-alpha kinase GCN2 (Homo sapiens), Q9P2K8 [S808G]; assay: GCN2(Kin.Dom.2,S808G) DiscoveRx kinase panel; details: Compound concentration 1.0 uM
Sequence of eIF-2-alpha kinase GCN2 (Homo sapiens), Q9P2K8 [S808G] (Q9P2K8 whole entry S808G): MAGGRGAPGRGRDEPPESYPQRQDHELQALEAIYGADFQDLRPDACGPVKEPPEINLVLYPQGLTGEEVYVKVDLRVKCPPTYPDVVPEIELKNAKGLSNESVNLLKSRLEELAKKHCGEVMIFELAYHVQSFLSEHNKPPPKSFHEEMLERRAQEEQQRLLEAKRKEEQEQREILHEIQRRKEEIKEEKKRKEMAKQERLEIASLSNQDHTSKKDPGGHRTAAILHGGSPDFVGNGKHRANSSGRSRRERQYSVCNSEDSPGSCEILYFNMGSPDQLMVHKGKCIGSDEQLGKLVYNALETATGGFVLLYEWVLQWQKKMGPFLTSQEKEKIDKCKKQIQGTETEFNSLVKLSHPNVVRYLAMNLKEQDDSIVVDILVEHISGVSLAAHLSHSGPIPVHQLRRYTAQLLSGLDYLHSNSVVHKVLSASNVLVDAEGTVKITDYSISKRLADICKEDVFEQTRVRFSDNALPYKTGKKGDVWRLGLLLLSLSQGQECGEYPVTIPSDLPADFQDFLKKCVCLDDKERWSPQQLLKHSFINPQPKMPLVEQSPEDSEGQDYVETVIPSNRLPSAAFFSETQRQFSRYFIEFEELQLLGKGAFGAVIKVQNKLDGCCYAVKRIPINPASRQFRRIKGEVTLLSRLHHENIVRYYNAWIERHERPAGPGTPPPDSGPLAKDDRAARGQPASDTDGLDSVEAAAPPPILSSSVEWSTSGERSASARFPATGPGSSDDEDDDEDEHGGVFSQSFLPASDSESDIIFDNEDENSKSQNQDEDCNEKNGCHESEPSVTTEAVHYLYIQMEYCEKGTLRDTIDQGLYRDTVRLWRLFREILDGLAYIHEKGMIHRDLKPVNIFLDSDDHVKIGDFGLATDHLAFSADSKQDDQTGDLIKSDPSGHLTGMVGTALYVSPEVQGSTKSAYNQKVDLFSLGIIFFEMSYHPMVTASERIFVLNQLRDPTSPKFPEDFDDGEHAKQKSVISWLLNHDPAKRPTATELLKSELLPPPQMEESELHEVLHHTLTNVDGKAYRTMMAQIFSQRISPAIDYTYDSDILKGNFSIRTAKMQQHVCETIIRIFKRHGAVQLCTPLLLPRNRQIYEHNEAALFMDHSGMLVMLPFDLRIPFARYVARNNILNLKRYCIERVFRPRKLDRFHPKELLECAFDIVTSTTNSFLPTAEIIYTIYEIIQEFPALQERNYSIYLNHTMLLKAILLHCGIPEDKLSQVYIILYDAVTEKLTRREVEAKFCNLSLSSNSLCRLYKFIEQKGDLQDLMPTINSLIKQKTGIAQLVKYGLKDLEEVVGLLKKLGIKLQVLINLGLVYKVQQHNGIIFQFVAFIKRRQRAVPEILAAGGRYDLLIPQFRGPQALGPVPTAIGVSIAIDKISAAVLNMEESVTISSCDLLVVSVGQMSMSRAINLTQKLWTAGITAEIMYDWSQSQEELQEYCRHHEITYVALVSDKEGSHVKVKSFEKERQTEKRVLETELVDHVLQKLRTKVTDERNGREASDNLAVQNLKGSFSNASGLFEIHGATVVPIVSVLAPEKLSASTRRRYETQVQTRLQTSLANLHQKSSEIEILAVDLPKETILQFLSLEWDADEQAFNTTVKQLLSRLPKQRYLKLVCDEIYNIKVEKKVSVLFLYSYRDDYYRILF

[19] = target: NUAK family SNF1-like kinase 1 (Homo sapiens) (UniProt O60285); assay: ARK5 DiscoveRx kinase panel; details: Compound concentration 1.0 uM
[20] = target: Discoidin domain-containing receptor 2 (Homo sapiens) (UniProt Q16832); assay: DDR2 DiscoveRx kinase panel; details: Compound concentration 1.0 uM
[21] = target: Serine/threonine-protein kinase VRK2 (Homo sapiens) (UniProt Q86Y07); assay: VRK2 DiscoveRx kinase panel; details: Compound concentration 1.0 uM
[22] = target: Mitogen-activated protein kinase 4 (Homo sapiens) (UniProt P31152); assay: ERK4 DiscoveRx kinase panel; details: Compound concentration 1.0 uM
[23] = target: Fibroblast growth factor receptor 4 (Homo sapiens) (UniProt P22455); assay: FGFR4 DiscoveRx kinase panel; details: Compound concentration 1.0 uM
[24] = target: Ribosomal protein S6 kinase alpha-3 (Homo sapiens) (UniProt P51812); assay: RSK2(Kin.Dom.2-C-terminal) DiscoveRx kinase panel; details: Compound concentration 1.0 uM
[25] = target: Hormonally up-regulated neu tumor-associated kinase (Homo sapiens) (UniProt P57058); assay: HUNK DiscoveRx kinase panel; details: Compound concentration 1.0 uM
[26] = target: NUAK family SNF1-like kinase 2 (Homo sapiens) (UniProt Q9H093); assay: SNARK DiscoveRx kinase panel; details: Compound concentration 1.0 uM
[27] = target: ALK tyrosine kinase receptor (Homo sapiens) (UniProt Q9UM73); assay: ALK DiscoveRx kinase panel; details: Compound concentration 1.0 uM
[28] = target: 5'-AMP-activated protein kinase catalytic subunit alpha-1 (Homo sapiens) (UniProt Q13131); assay: AMPK-alpha1 DiscoveRx kinase panel; details: Compound concentration 1.0 uM
[29] = target: Aurora kinase A (Homo sapiens) (UniProt O14965); assay: AURKA DiscoveRx kinase panel; details: Compound concentration 1.0 uM
[30] = target: Calcium/calmodulin-dependent protein kinase type II subunit gamma (Homo sapiens) (UniProt Q13555); assay: CAMK2G DiscoveRx kinase panel; details: Compound concentration 1.0 uM
[31] = target: Cyclin-dependent kinase 11A (Homo sapiens) (UniProt Q9UQ88); assay: CDC2L2 DiscoveRx kinase panel; details: Compound concentration 1.0 uM
[32] = target: Cyclin-dependent kinase-like 5 (Homo sapiens) (UniProt O76039); assay: CDKL5 DiscoveRx kinase panel; details: Compound concentration 1.0 uM
[33] = target: Serine/threonine-protein kinase DCLK3 (Homo sapiens) (UniProt Q9C098); assay: DCAMKL3 DiscoveRx kinase panel; details: Compound concentration 1.0 uM
[34] = target: Tyrosine-protein kinase ITK/TSK (Homo sapiens) (UniProt Q08881); assay: ITK DiscoveRx kinase panel; details: Compound concentration 1.0 uM
[35] = target: Myosin light chain kinase family member 4 (Homo sapiens) (UniProt Q86YV6); assay: MYLK4 DiscoveRx kinase panel; details: Compound concentration 1.0 uM
[36] = target: Serine/threonine-protein kinase Nek10 (Homo sapiens) (UniProt Q6ZWH5); assay: NEK10 DiscoveRx kinase panel; details: Compound concentration 1.0 uM
Sequence of Serine/threonine-protein kinase Nek10 (Homo sapiens) (Q6ZWH5 whole entry, canonical isoform): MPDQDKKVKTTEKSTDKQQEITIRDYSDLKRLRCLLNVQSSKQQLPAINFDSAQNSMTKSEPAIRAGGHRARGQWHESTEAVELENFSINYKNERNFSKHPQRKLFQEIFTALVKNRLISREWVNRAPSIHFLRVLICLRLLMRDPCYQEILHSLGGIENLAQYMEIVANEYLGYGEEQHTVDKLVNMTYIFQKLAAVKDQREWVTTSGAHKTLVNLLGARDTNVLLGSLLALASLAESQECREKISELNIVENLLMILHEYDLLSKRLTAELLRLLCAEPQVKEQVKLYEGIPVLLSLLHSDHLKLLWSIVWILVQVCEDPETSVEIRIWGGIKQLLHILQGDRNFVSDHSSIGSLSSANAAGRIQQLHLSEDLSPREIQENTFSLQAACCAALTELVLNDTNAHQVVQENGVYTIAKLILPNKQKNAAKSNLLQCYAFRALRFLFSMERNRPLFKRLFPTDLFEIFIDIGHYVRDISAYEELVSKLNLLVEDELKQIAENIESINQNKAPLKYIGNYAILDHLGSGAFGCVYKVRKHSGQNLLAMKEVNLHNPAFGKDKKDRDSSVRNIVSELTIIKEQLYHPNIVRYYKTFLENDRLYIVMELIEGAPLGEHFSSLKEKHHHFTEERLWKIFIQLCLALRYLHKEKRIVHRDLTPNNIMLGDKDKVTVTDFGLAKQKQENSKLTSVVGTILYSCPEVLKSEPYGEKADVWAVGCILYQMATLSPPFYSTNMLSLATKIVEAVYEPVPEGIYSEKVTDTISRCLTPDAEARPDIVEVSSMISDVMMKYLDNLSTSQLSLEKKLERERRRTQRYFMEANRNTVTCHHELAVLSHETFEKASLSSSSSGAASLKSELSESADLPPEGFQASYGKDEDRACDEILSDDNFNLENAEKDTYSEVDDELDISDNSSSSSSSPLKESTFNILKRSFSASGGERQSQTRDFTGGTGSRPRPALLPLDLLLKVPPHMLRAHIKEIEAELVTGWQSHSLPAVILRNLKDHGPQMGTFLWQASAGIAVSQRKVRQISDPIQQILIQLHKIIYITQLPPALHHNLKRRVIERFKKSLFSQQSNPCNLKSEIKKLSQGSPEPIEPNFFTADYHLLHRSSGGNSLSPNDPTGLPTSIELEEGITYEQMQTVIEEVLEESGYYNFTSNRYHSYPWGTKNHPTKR

[37] = target: Phosphatidylinositol 4,5-bisphosphate 3-kinase catalytic subunit delta isoform (Homo sapiens) (UniProt O00329); assay: PIK3CD DiscoveRx kinase panel; details: Compound concentration 1.0 uM
[38] = target: cAMP-dependent protein kinase catalytic subunit alpha (Homo sapiens) (UniProt P17612); assay: PKAC-alpha DiscoveRx kinase panel; details: Compound concentration 1.0 uM
[39] = target: Tyrosine-protein kinase ZAP-70 (Homo sapiens) (UniProt P43403); assay: ZAP70 DiscoveRx kinase panel; details: Compound concentration 1.0 uM
[40] = target: Peroxisome proliferator-activated receptor gamma (Homo sapiens) (UniProt P37231); assay: PPARgamma Eurofins-Panlabs radioligand binding assay; parameters: ligand concentration 5 nM; details: Compound concentration 10.0 uM
[41] = target: Sodium-dependent dopamine transporter (Homo sapiens, UniProt Q01959); details: Compound concentration 10.0 uM
[42] = target: Beta-3 adrenergic receptor (Homo sapiens) (UniProt P13945); details: Compound concentration 10.0 uM
[43] = target: Sigma non-opioid intracellular receptor 1 (Homo sapiens, UniProt Q99720); details: Compound concentration 10.0 uM
Sequence of Sigma non-opioid intracellular receptor 1 (Q99720 whole entry): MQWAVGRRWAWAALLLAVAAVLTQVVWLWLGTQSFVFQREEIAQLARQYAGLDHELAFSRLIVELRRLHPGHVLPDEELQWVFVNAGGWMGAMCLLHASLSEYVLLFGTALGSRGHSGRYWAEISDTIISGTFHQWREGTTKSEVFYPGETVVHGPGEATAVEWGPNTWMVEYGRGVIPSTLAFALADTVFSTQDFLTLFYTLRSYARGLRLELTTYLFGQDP

[44] = target: Glutamate NMDA receptor (Rattus norvegicus) (UniProt P35439+Q00959+Q00960+Q00961+Q62645+Q8VHN2+Q9R1M7); details: Compound concentration 10.0 uM
[45] = target: Glutamate receptor 2 (Homo sapiens) (UniProt P42262); details: Rattus norvegicus; Compound concentration 10.0 uM

COc1cnccc1Nc1nc(-c2nn(Cc3c(F)cc(OCCO)cc3F)c3ccccc23)ncc1OC
inhibition [1]: -1% | inhibition [2]: 28% | inhibition (Bacteria): 21% | inhibition (Homo sapiens): 17% | residual activity [3]: 57% | residual activity ([3]; Compound concentration 1.0 uM): 0.6% | residual activity [4]: 62% | residual activity [5]: 62% | residual activity [6]: 68% | residual activity [7]: 71% | residual activity [8]: 72% | residual activity [9]: 77% | residual activity [10]: 82% | residual activity [11]: 83% | residual activity [12]: 84% | residual activity [13]: 85% | residual activity [14]: 87% | residual activity [15]: 87% | residual activity [16]: 89% | residual activity [17]: 90% | residual activity [18]: 91% | residual activity [19]: 92% | residual activity [20]: 93% | residual activity [21]: 94% | residual activity [22]: 96% | residual activity [23]: 98% | residual activity [24]: 98% | residual activity [25]: 99% | residual activity [26]: 99% | residual activity [27]: 100% | residual activity [28]: 100% | residual activity [29]: 100% | residual activity [30]: 100% | residual activity [31]: 100% | residual activity [32]: 100% | residual activity [33]: 100% | residual activity [34]: 100% | residual activity [35]: 100% | residual activity [36]: 100% | residual activity [37]: 100% | residual activity [38]: 100% | residual activity [39]: 100% | inhibition [40]: -8% | inhibition [41]: 60.2% | inhibition [42]: 4.26% | inhibition [43]: 4.34% | inhibition [44]: 4% | inhibition [45]: 7%

Source: ChEMBL document CHEMBL5058649, “Data for DCP probe BAY 1816032” (2022)
